How the values were obtained:
[1] = tested on: Rattus norvegicus; experiment: Hypotensive activity in deoxycorticosterone acetate treated hypertensive CD rat assessed as change in blood pressure at 50 mg, ip after 24 hrs relative to control; type: functional
[2] = Toxicity in ip dosed Swiss-Webster mouse after 24 hrs; type: organism-based; settings: in vivo
[3] = tested on: Rattus norvegicus; experiment: Cardiovascular activity in deoxycorticosterone acetate treated hypertensive CD rat assessed as change in heart rate at 10 mg, ip after 1 hr relative to control; type: ADME, organism-based; settings: in vivo
[4] = tested on: Rattus norvegicus; experiment: Hypotensive activity in deoxycorticosterone acetate treated hypertensive CD rat assessed as change in blood pressure at 10 mg, ip after 4 hrs relative to control; type: functional
[5] = tested on: Rattus norvegicus; experiment: Cardiovascular activity in deoxycorticosterone acetate treated hypertensive CD rat assessed as change in heart rate at 10 mg, ip after 4 hrs relative to control; type: ADME, organism-based; settings: in vivo
[6] = tested on: Rattus norvegicus; experiment: Hypotensive activity in deoxycorticosterone acetate treated hypertensive CD rat assessed as change in blood pressure at 10 mg, ip after 24 hrs relative to control; type: functional
[7] = tested on: Rattus norvegicus; experiment: Hypotensive activity in deoxycorticosterone acetate treated hypertensive CD rat assessed as change in blood pressure at 10 mg, ip after 2 hrs relative to control; type: functional
[8] = tested on: Rattus norvegicus; experiment: Cardiovascular activity in deoxycorticosterone acetate treated hypertensive CD rat assessed as change in heart rate at 20 mg, ip after 1 hr relative to control; type: ADME, organism-based; settings: in vivo
[9] = tested on: Rattus norvegicus; experiment: Hypotensive activity in deoxycorticosterone acetate treated hypertensive CD rat assessed as change in blood pressure at 20 mg, ip after 1 hr relative to control; type: functional
[10] = tested on: Rattus norvegicus; experiment: Cardiovascular activity in deoxycorticosterone acetate treated hypertensive CD rat assessed as change in heart rate at 10 mg, ip after 2 hrs relative to control; type: ADME, organism-based; settings: in vivo
[11] = tested on: Rattus norvegicus; experiment: Cardiovascular activity in deoxycorticosterone acetate treated hypertensive CD rat assessed as change in heart rate at 20 mg, ip after 4 hrs relative to control; type: ADME, organism-based; settings: in vivo
[12] = tested on: Rattus norvegicus; experiment: Cardiovascular activity in deoxycorticosterone acetate treated hypertensive CD rat assessed as change in heart rate at 20 mg, ip after 24 hrs relative to control; type: ADME, organism-based; settings: in vivo
[13] = tested on: Rattus norvegicus; experiment: Hypotensive activity in deoxycorticosterone acetate treated hypertensive CD rat assessed as change in blood pressure at 20 mg, ip after 2 hrs relative to control; type: functional
[14] = tested on: Rattus norvegicus; experiment: Cardiovascular activity in deoxycorticosterone acetate treated hypertensive CD rat assessed as change in heart rate at 20 mg, ip after 2 hrs relative to control; type: ADME, organism-based; settings: in vivo
[15] = tested on: Rattus norvegicus; experiment: Hypotensive activity in deoxycorticosterone acetate treated hypertensive CD rat assessed as change in blood pressure at 20 mg, ip after 4 hrs relative to control; type: functional
[16] = tested on: Rattus norvegicus; experiment: Hypotensive activity in deoxycorticosterone acetate treated hypertensive CD rat assessed as change in blood pressure at 20 mg, ip after 24 hrs relative to control; type: functional
[17] = tested on: Rattus norvegicus; experiment: Cardiovascular activity in deoxycorticosterone acetate treated hypertensive CD rat assessed as change in heart rate at 10 mg, ip after 24 hrs relative to control; type: ADME, organism-based; settings: in vivo
[18] = tested on: Rattus norvegicus; experiment: Hypotensive activity in deoxycorticosterone acetate treated hypertensive CD rat assessed as change in blood pressure at 10 mg, ip after 1 hr relative to control; type: functional
[19] = tested on: Rattus norvegicus; experiment: Cardiovascular activity in deoxycorticosterone acetate treated hypertensive CD rat assessed as change in heart rate at 50 mg, ip after 24 hrs relative to control; type: ADME, organism-based; settings: in vivo
[20] = tested on: Rattus norvegicus; experiment: Cardiovascular activity in deoxycorticosterone acetate treated hypertensive CD rat assessed as change in heart rate at 5 mg, ip after 2 hrs relative to control; type: ADME, organism-based; settings: in vivo
[21] = tested on: Rattus norvegicus; experiment: Cardiovascular activity in deoxycorticosterone acetate treated hypertensive CD rat assessed as change in heart rate at 5 mg, ip after 24 hrs relative to control; type: ADME, organism-based; settings: in vivo
[22] = tested on: Rattus norvegicus; experiment: Hypotensive activity in deoxycorticosterone acetate treated hypertensive CD rat assessed as change in blood pressure at 5 mg, ip after 1 hr relative to control; type: functional
[23] = tested on: Rattus norvegicus; experiment: Hypotensive activity in deoxycorticosterone acetate treated hypertensive CD rat assessed as change in blood pressure at 5 mg, ip after 4 hrs relative to control; type: functional
[24] = tested on: Rattus norvegicus; experiment: Cardiovascular activity in deoxycorticosterone acetate treated hypertensive CD rat assessed as change in heart rate at 5 mg, ip after 4 hrs relative to control; type: ADME, organism-based; settings: in vivo
[25] = tested on: Rattus norvegicus; experiment: Hypotensive activity in deoxycorticosterone acetate treated hypertensive CD rat assessed as change in blood pressure at 5 mg, ip after 24 hrs relative to control; type: functional
[26] = tested on: Rattus norvegicus; experiment: Cardiovascular activity in deoxycorticosterone acetate treated hypertensive CD rat assessed as change in heart rate at 5 mg, ip after 1 hr relative to control; type: ADME, organism-based; settings: in vivo
[27] = tested on: Rattus norvegicus; experiment: Hypotensive activity in deoxycorticosterone acetate treated hypertensive CD rat assessed as change in blood pressure at 5 mg, ip after 2 hrs relative to control; type: functional
[28] = tested on: Rattus norvegicus; experiment: Cardiovascular activity in deoxycorticosterone acetate treated hypertensive CD rat assessed as change in heart rate at 4 mg, ip after 24 hrs relative to control; type: ADME, organism-based; settings: in vivo
[29] = tested on: Rattus norvegicus; experiment: Hypotensive activity in deoxycorticosterone acetate treated hypertensive CD rat assessed as change in blood pressure at 4 mg, ip after 4 hrs relative to control; type: functional
[30] = tested on: Rattus norvegicus; experiment: Hypotensive activity in deoxycorticosterone acetate treated hypertensive CD rat assessed as change in blood pressure at 4 mg, ip after 24 hrs relative to control; type: functional
[31] = tested on: Rattus norvegicus; experiment: Cardiovascular activity in deoxycorticosterone acetate treated hypertensive CD rat assessed as change in heart rate at 4 mg, ip after 4 hrs relative to control; type: ADME, organism-based; settings: in vivo
[32] = tested on: Rattus norvegicus; experiment: Hypotensive activity in deoxycorticosterone acetate treated hypertensive CD rat assessed as change in blood pressure at 4 mg, ip after 1 hr relative to control; type: functional
[33] = tested on: Rattus norvegicus; experiment: Hypotensive activity in deoxycorticosterone acetate treated hypertensive CD rat assessed as change in blood pressure at 4 mg, ip after 2 hrs relative to control; type: functional
[34] = tested on: Rattus norvegicus; experiment: Cardiovascular activity in deoxycorticosterone acetate treated hypertensive CD rat assessed as change in heart rate at 4 mg, ip after 2 hrs relative to control; type: ADME, organism-based; settings: in vivo
[35] = tested on: Rattus norvegicus; experiment: Cardiovascular activity in deoxycorticosterone acetate treated hypertensive CD rat assessed as change in heart rate at 4 mg, ip after 1 hr relative to control; type: ADME, organism-based; settings: in vivo
[36] = tested on: Rattus norvegicus; experiment: Cardiovascular activity in deoxycorticosterone acetate treated hypertensive CD rat assessed as change in heart rate at 25 mg, ip after 24 hrs relative to control; type: ADME, organism-based; settings: in vivo
[37] = tested on: Rattus norvegicus; experiment: Hypotensive activity in deoxycorticosterone acetate treated hypertensive CD rat assessed as change in blood pressure at 25 mg, ip after 4 hrs relative to control; type: functional
[38] = tested on: Rattus norvegicus; experiment: Hypotensive activity in deoxycorticosterone acetate treated hypertensive CD rat assessed as change in blood pressure at 25 mg, ip after 1 hr relative to control; type: functional
[39] = tested on: Rattus norvegicus; experiment: Hypotensive activity in deoxycorticosterone acetate treated hypertensive CD rat assessed as change in blood pressure at 25 mg, ip after 24 hrs relative to control; type: functional
[40] = tested on: Rattus norvegicus; experiment: Cardiovascular activity in deoxycorticosterone acetate treated hypertensive CD rat assessed as change in heart rate at 25 mg, ip after 2 hrs relative to control; type: ADME, organism-based; settings: in vivo
[41] = tested on: Rattus norvegicus; experiment: Cardiovascular activity in deoxycorticosterone acetate treated hypertensive CD rat assessed as change in heart rate at 25 mg, ip after 1 hr relative to control; type: ADME, organism-based; settings: in vivo
[42] = tested on: Rattus norvegicus; experiment: Cardiovascular activity in deoxycorticosterone acetate treated hypertensive CD rat assessed as change in heart rate at 25 mg, ip after 4 hrs relative to control; type: ADME, organism-based; settings: in vivo
[43] = tested on: Rattus norvegicus; experiment: Hypotensive activity in deoxycorticosterone acetate treated hypertensive CD rat assessed as change in blood pressure at 25 mg, ip after 2 hrs relative to control; type: functional

Row | SMILES | LD50 at 24 h [2] | Activity [3] | Activity [4] | Activity [5] | Activity [6] | Activity [7] | Activity [8] | Activity [9] | Activity [10] | Activity [11] | Activity [12] | Activity [13] | Activity [14] | Activity [15] | Activity [16] | Activity [17] | Activity [18] | further results
1 | COc1c2c(c3c(c1OC)CNCC3)CCC2 | 79 mg/kg | 5.8% | -14.2% | 3.9% | -7.2% | -3.4% | 10.2% | -3.9% | 8.1% | 11% | 7.4% | -4% | 16.9% | -3.9% | -0.2% | -9.1% | -3.1% | Activity [1]: -16.8%; Activity [19]: -3.8%
2 | Br.CCC(C)CN1CCc2c3c(c(OC)c(OC)c2C1)CCC3 (centres undefined) | 100 mg/kg | 3.6% | 0.7% | -4.3% | -2.6% | -1.9% | 7.8% | -13.1% | -4.2% | 3.4% | -5.5% | -8.1% | 7.3% | -7% | -1.6% | -2.4% | -12.2% | –
3 | COc1c2c(c3c(c1OC)CCNC3)CCC2 | 25 mg/kg | – | 2.4% | 9% | 1% | -13.2% | – | – | 4.7% | – | – | – | – | – | – | -2.6% | – | Activity [20]: -1.4%; Activity [21]: -12.2%; Activity [22]: -9.5%; Activity [23]: -6.5%; Activity [24]: -8.5%; Activity [25]: 1.8%; Activity [26]: -5.2%; Activity [27]: -3%
4 | Br.COc1c2c(c3c(c1OC)CCN(C)C3)CCC2 | 10 mg/kg | – | – | – | – | – | – | – | – | – | – | – | – | – | – | – | – | Activity [28]: 1.8%; Activity [29]: -2.6%; Activity [30]: 19.7%; Activity [31]: -0.4%; Activity [32]: 13%; Activity [33]: 12.2%; Activity [34]: 11.2%; Activity [35]: 13.2%
5 | Br.CCC(C)CN1CCc2c(c3c(c(OC)c2OC)CCC3)C1 (centres undefined) | 178 mg/kg | – | – | – | – | – | – | – | – | – | – | – | – | – | – | – | – | Activity [36]: -0.3%; Activity [37]: -6.7%; Activity [38]: -17.2%; Activity [39]: 1.3%; Activity [40]: 11.8%; Activity [41]: 13.7%; Activity [42]: 5%; Activity [43]: -12.6%
